Literature values, collected in US11992485B2, “Analgesic formulations and methods for reduced postoperative nausea and vomiting and enhanced postoperative pain relief” (Hutchison Health, LLC, priority 2013, dated 2024).
Structures can show the parent of a compound that is named as a salt.

Experiments:
[1] = test system: Lumbar Laminectomy patients
[2] = Table 2: 12 hr., Rahmanian et al.

Structure (SMILES): CCCCN1CCCCC1C(=O)Nc1c(C)cccc1C (stereo not drawn) [Bupivacaine Hydrochloride]
- % of patients with NO PONV (50 patients; Table 1: first 24-48 hours post-surgery, Patel et al.): 72%
- patients who developed PONV (50 patients; intrathecal, Patel): 28%
- decrease of postoperative surgical pain compared with 30 ml Normal Saline ([1]; 30 mL of 0.25%, infiltrative field block at surgical closure, Rahmanian): no more effective than 30 ml Normal Saline
- Patients with MILD PAIN [1, 2]: 0%
- Patients with NO PAIN [1, 2]: 0%
- VAS scores at rest compared with control Normal Saline group ([1]; subjective linear VAS, Rahmanian): higher
